Experimental data: patent US6737041B1, “Non-ozone depleting vapocoolants” (University of Cincinnati, priority 1993, dated 2004)

Experiments:
[1] = tested on: skin (site on the subject's forearm); assay: Study 1: minimum skin temperature after spraying coolant for 5 seconds from 12 inches; type: in vivo, human; settings: spray time 5 seconds; for Minimum temperature for site A, MEAN ± STANDARD DEVIATION / Minimum temperature for site A: site A (forearm); for Minimum temperature for site A, MEAN ± STANDARD DEVIATION / Minimum temperature for site B, MEAN ± STANDARD DEVIATION: mean of 5 subjects, in °C (unit assumed); for Minimum temperature for site B, MEAN ± STANDARD DEVIATION / Minimum temperature for site B: site B (forearm, different from A)
Method: Tables 1 and 5 describe the experimental conditions in accordance with the procedural steps described above. The only difference between Table 1 and Table 5 and between Study 1 and Study 2 is that in Study 1 the spray time was five seconds, whereas in Study 2 the spray time was 3 seconds. Comparison is made between various coolants including ethylchloride at room temperature, ethylchloride at 11° C., Fluorimethane® at room temperature, Fuorimethane® at 11° C. and mixtures of HFC 152a and HFC 134a.
(§1) Tables 2 and 6 describe the subjects chosen including their normal skin temperature, the sex, race, age, weight and height of the subjects.

[2] = tested on: skin (site on the subject's forearm); assay: Study 2: minimum skin temperature after spraying coolant for 3 seconds from 12 inches; type: in vivo, human; settings: spray time 3 seconds; for Minimum temperature for site A, MEAN ± SD / Minimum temperature for site A: site A (forearm); for Minimum temperature for site A, MEAN ± SD / Minimum temperature for site B, MEAN ± SD: mean of 15 subjects, in °C (unit assumed); for Minimum temperature for site B, MEAN ± SD / Minimum temperature for site B: site B (forearm, different from A)
Source text: Tables 1 and 5 describe the experimental conditions in accordance with the procedural steps described above. The only difference between Table 1 and Table 5 and between Study 1 and Study 2 is that in Study 1 the spray time was five seconds, whereas in Study 2 the spray time was 3 seconds.
as §1

[3] = subject 1, in °C (unit assumed)
[4] = subject 2, in °C (unit assumed)
[5] = subject 3, in °C (unit assumed)
[6] = subject 4, in °C (unit assumed)
[7] = subject 5, in °C (unit assumed)
[8] = subject code 1, in °C (unit assumed)
[9] = subject code 2, in °C (unit assumed)
[10] = subject code 3, in °C (unit assumed)
[11] = subject code 4, in °C (unit assumed)
[12] = subject code 5, in °C (unit assumed)
[13] = subject code 6, in °C (unit assumed)
[14] = subject code 7, in °C (unit assumed)
[15] = subject code 8, in °C (unit assumed)
[16] = subject code 9, in °C (unit assumed)
[17] = subject code 10, in °C (unit assumed)
[18] = subject code 11, in °C (unit assumed)
[19] = subject code 12, in °C (unit assumed)
[20] = subject code 13, in °C (unit assumed)
[21] = subject code 14, in °C (unit assumed)
[22] = subject code 15, in °C (unit assumed)

## CCCl [EC, Ethyl chloride]
[1]
  Minimum temperature for site A, MEAN ± STANDARD DEVIATION: −14.93 ± 2.45
  Minimum temperature for site B, MEAN ± STANDARD DEVIATION: −16.40 ± 0.77
[1]; [3]
  Minimum temperature for site A: −13.22
  Minimum temperature for site B: −16.87
[1]; [4]
  Minimum temperature for site A: −16.87
  Minimum temperature for site B: −15.78
[1]; [5]
  Minimum temperature for site A: −17.56
  Minimum temperature for site B: −15.73
[1]; [6]
  Minimum temperature for site A: −11.72
  Minimum temperature for site B: −16.12
[1]; [7]
  Minimum temperature for site A: −15.26
  Minimum temperature for site B: −17.50
[2]
  Minimum temperature for site A, MEAN ± SD: −15.70 ± 1.56
  Minimum temperature for site B, MEAN ± SD: −15.92 ± 2.01
[2]; [8]
  Minimum temperature for site A: −16.93
  Minimum temperature for site B: −17.99
[2]; [9]
  Minimum temperature for site A: −14.64
  Minimum temperature for site B: −17.03
[2]; [10]
  Minimum temperature for site A: −13.78
  Minimum temperature for site B: −13.60
[2]; [11]
  Minimum temperature for site A: −14.86
  Minimum temperature for site B: −16.89
[2]; [12]
  Minimum temperature for site A: −15.34
  Minimum temperature for site B: −15.33
[2]; [13]
  Minimum temperature for site A: −14.75
  Minimum temperature for site B: −12.73
[2]; [14]
  Minimum temperature for site A: 16.70
  Minimum temperature for site B: −15.93
[2]; [15]
  Minimum temperature for site A: −18.76
  Minimum temperature for site B: −18.79
[2]; [16]
  Minimum temperature for site A: −15.46
  Minimum temperature for site B: −12.08
[2]; [17]
  Minimum temperature for site A: −16.53
  Minimum temperature for site B: −14.03
[2]; [18]
  Minimum temperature for site A: −14.68
  Minimum temperature for site B: −18.32
[2]; [19]
  Minimum temperature for site A: −13.59
  Minimum temperature for site B: −16.52
[2]; [20]
  Minimum temperature for site A: −14.52
  Minimum temperature for site B: 16.48
[2]; [21]
  Minimum temperature for site A: −16.62
  Minimum temperature for site B: −16.02
[2]; [22]
  Minimum temperature for site A: −18.45
  Minimum temperature for site B: −17.12

## CCCl [ECC, Ethyl chloride]
[1]
  Minimum temperature for site A, MEAN ± STANDARD DEVIATION: −15.59 ± 2.50
  Minimum temperature for site B, MEAN ± STANDARD DEVIATION: −18.41 ± 1.92
[1]; [3]
  Minimum temperature for site A: −15.80
  Minimum temperature for site B: −19.22
[1]; [4]
  Minimum temperature for site A: −11.32
  Minimum temperature for site B: −15.56
[1]; [5]
  Minimum temperature for site A: −17.81
  Minimum temperature for site B: −18.71
[1]; [6]
  Minimum temperature for site A: −16.19
  Minimum temperature for site B: −17.80
[1]; [7]
  Minimum temperature for site A: −16.84
  Minimum temperature for site B: −20.75
[2]
  Minimum temperature for site A, MEAN ± SD: −16.12 ± 2.13
  Minimum temperature for site B, MEAN ± SD: −15.54 ± 3.33
[2]; [8]
  Minimum temperature for site A: −17.89
  Minimum temperature for site B: −12.79
[2]; [9]
  Minimum temperature for site A: −17.54
  Minimum temperature for site B: −17.73
[2]; [10]
  Minimum temperature for site A: −14.82
  Minimum temperature for site B: −11.70
[2]; [11]
  Minimum temperature for site A: −13.46
  Minimum temperature for site B: −16.21
[2]; [12]
  Minimum temperature for site A: −17.04
  Minimum temperature for site B: −15.84
[2]; [13]
  Minimum temperature for site A: −17.18
  Minimum temperature for site B: −15.32
[2]; [14]
  Minimum temperature for site A: −13.22
  Minimum temperature for site B: −10.04
[2]; [15]
  Minimum temperature for site A: −13.10
  Minimum temperature for site B: −20.86
[2]; [16]
  Minimum temperature for site A: −18.11
  Minimum temperature for site B: −16.69
[2]; [17]
  Minimum temperature for site A: −17.63
  Minimum temperature for site B: −18.07
[2]; [18]
  Minimum temperature for site A: −15.56
  Minimum temperature for site B: −18.65
[2]; [19]
  Minimum temperature for site A: −17.00
  Minimum temperature for site B: −10.58
[2]; [20]
  Minimum temperature for site A: −13.13
  Minimum temperature for site B: −12.08
[2]; [21]
  Minimum temperature for site A: −16.26
  Minimum temperature for site B: −17.86
[2]; [22]
  Minimum temperature for site A: −19.80
  Minimum temperature for site B: −18.69
